Columns and labels:
[1] = target: T1, HDAC2 (Homo sapiens, UniProt Q92769); assay: fluorometric HDAC activity assay, […]; assay type: biochemical
[2] = target: T2, HDAC3 (Homo sapiens, UniProt O15379); assay: fluorometric HDAC activity assay, […]; assay type: biochemical
[3] = target: HDAC1 (Homo sapiens, UniProt Q13547); assay: […]FTY720-P radioligand binding and displacement on Ni-NTA immobilized HDAC1
[4] = target: T1, HDAC2; assay: fluorometric HDAC activity assay, […]; assay type: biochemical; remark: listed apart in the source
[5] = target: T2, HDAC3; assay: fluorometric HDAC activity assay, […]; assay type: biochemical; remark: listed apart in the source
[6] = target: T3, HDAC8 (Homo sapiens, UniProt Q9BY41); assay: fluorometric HDAC activity assay, […]; assay type: biochemical
T3 sequence (Q9BY41 1-377): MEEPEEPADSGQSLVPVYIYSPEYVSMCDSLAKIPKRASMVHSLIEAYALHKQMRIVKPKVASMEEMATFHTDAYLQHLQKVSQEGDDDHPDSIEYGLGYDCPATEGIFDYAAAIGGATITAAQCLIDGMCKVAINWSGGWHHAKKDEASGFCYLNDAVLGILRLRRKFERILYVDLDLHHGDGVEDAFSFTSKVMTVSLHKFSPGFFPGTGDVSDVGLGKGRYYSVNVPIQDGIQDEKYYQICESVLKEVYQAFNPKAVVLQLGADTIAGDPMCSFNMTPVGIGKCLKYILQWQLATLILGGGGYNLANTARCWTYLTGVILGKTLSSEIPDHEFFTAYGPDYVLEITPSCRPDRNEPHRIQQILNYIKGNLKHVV

T2 sequence (O15379 whole entry): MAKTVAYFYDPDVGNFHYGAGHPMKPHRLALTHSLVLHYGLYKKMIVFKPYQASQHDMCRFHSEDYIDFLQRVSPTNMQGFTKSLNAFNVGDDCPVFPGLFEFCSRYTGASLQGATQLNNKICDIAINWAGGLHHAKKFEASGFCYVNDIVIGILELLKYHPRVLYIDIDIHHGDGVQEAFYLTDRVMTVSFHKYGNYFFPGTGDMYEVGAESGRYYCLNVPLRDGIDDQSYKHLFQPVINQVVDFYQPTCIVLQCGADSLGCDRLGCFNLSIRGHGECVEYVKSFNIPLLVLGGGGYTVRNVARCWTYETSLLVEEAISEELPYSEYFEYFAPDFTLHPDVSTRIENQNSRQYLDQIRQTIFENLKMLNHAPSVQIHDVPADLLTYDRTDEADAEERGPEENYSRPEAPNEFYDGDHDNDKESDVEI
T1 sequence (Q92769 whole entry): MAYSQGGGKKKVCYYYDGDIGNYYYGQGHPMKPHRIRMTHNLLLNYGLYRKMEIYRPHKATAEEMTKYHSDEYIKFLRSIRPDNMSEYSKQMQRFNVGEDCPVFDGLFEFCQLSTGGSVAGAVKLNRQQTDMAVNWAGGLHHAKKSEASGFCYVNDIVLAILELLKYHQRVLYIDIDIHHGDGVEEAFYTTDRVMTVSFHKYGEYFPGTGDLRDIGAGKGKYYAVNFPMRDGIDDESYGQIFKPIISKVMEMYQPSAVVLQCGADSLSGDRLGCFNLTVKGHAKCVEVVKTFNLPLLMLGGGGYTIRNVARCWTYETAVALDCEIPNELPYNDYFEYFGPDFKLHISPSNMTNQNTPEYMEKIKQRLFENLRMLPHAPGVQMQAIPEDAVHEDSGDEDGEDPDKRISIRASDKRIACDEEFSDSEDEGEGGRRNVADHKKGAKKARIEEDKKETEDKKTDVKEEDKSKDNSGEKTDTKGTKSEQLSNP
HDAC1, sequence (Q13547 whole entry): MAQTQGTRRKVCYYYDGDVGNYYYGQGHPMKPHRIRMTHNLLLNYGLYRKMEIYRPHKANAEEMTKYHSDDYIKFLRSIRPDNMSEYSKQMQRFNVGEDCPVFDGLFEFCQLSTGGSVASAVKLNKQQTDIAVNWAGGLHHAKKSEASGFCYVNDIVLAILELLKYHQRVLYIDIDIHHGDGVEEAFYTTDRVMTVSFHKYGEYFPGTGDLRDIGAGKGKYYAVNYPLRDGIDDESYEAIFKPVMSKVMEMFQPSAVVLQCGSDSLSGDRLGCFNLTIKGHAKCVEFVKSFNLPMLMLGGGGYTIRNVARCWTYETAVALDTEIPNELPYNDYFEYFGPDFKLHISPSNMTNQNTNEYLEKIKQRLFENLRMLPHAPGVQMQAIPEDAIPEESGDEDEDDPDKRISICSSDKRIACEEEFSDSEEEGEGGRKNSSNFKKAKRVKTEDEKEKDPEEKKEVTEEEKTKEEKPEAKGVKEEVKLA

Compound: CCCCCCCCCCCCC/C=C/[C@@H](O)[C@@H](N)COP(=O)(O)O [S1P]
- fluorometric HDAC activity assay, 5 uM [1]: Even though S1P inhibited HDAC1–HDAC3, it did not inhibit HDAC8 activity
- fluorometric HDAC activity assay, 5 uM [2]: Even though S1P inhibited HDAC1–HDAC3, it did not inhibit HDAC8 activity

Compound: CCCCCCCCc1ccc(CC[C@](N)(CO)COP(=O)(O)O)cc1 [FTY720-P]
- Kd [3]: 6.2 nM
- fluorometric HDAC activity assay, 0.5 or 5 uM [4]: FTY720-P inhibited the activities of highly purified recombinant class I HDACs (HDAC1, HDAC2, HDAC3 and HDAC8)
- fluorometric HDAC activity assay, 0.5 or 5 uM [5]: FTY720-P inhibited the activities of highly purified recombinant class I HDACs (HDAC1, HDAC2, HDAC3 and HDAC8)
- fluorometric HDAC activity assay, 0.5 or 5 uM [6]: FTY720-P inhibited the activities of highly purified recombinant class I HDACs (HDAC1, HDAC2, HDAC3 and HDAC8)
